Measurements reported in patent US12673946B2, “Pyrimidin-4(3H)-one derivatives as TRPV4 antagonists” (RaQualia Pharma Inc., priority 2020, dated 2026).

Target: T1, human TRPV4 (Homo sapiens, UniProt Q9HBA0)
T1 construct: host or cells: tetracycline-inducible Flp-In T-REx 293 cells
Experiment: Hypotonicity-induced Ca2+ influx (Fluo-4, FDSS)
Assay type: cell-based
Procedure, shortened: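 Flp-In T-REx 293 cells with tetracycline-induced human TRPV4, loaded with Fluo-4 for 60 min at 25 °C. Compound added 5 min before hypotonic mannitol/CaCl2 solution. Ca2+ signal recorded for 4.5 min on FDSS.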

[1] = Flp-In T-REx 293 cells expressing human TRPV4, examples listed under heading 'Human IC50<50 nM'
[2] = Flp-In T-REx 293 cells stably expressing human TRPV4, compounds listed by potency bin (<10 nM Tables 96-1/96-2, <3 nM Table 97)

T1 sequence (Q9HBA0 whole entry): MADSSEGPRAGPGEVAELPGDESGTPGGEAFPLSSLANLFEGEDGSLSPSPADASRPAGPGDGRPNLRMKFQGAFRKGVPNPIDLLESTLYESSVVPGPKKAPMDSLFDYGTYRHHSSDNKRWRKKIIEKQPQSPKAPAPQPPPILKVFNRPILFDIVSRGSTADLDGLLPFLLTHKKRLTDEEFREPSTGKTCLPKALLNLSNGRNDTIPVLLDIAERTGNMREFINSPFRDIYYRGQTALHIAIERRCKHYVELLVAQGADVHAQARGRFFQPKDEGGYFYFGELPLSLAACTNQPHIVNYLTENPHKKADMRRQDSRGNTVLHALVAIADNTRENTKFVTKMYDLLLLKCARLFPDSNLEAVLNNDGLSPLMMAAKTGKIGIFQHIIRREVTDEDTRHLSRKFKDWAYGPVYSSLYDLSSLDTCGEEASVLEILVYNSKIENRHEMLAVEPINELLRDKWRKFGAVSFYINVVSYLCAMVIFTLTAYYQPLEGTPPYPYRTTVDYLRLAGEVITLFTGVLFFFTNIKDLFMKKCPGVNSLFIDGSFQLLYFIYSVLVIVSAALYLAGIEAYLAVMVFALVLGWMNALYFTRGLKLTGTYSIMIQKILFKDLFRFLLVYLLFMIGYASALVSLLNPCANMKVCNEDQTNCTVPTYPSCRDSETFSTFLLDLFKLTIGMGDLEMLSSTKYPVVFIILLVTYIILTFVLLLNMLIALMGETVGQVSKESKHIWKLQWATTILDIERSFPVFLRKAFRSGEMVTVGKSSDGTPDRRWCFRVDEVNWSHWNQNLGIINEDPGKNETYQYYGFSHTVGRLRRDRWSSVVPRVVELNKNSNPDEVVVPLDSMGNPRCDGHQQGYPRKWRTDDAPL

IC50 [1] [µM]	IC50 [2] [µM]	SMILES
< 0.05	–	O=C(C(O)c1cccc(Cl)c1F)N1CCCc2nc(C3(c4ccccc4)CC3)[nH]c(=O)c2C1 (centres unmarked) [17-42]
< 0.05	–	O=C(C(O)c1cccc(-c2cccc(F)c2)c1F)N1CCc2nc(C3(c4ccccc4)CC3)[nH]c(=O)c2C1 (centres unmarked) [44-33]
< 0.05	< 0.01	O=C(Cc1cccc(-c2cccc(C(F)(F)F)c2)c1)N1CCCc2nc(C3(c4ccccc4)CC3)[nH]c(=O)c2C1 [57-3]
< 0.05	–	CC(C)(C)c1cccc(C(O)C(=O)N2CCc3nc(C4(c5ccccc5)CC4)[nH]c(=O)c3C2)c1 (centres unmarked) [14-30]
< 0.05	< 0.01	CC(C)c1csc(C2(c3nc4c(c(=O)[nH]3)CN(C(=O)[C@H](O)c3cccc(-c5cccc(C(F)(F)F)c5)c3)CCC4)CC2)c1 [54-4]
< 0.05	< 0.01	O=C(C(O)c1cccc(-c2ccc(Cl)cc2)c1)N1CCCc2nc(C3(c4cccc(F)c4)CC3)[nH]c(=O)c2C1 (centres unmarked) [17-34]
< 0.05	< 0.01	CC(C)c1cncc(C2(c3nc4c(c(=O)[nH]3)CN(C(=O)[C@H](O)c3cccc(Cl)c3)CC4)CC2)c1 [25-3]
< 0.05	–	O=C(C(O)c1cccc(C2CC2)c1)N1CCCc2nc(C3(c4ccccc4)CC3)[nH]c(=O)c2C1 (centres unmarked) [17-58]
< 0.05	< 0.01	O=C(C(O)c1cccc(-c2cccc(SC(F)(F)F)c2)c1)N1CCc2nc(C3(c4ccccc4)CC3)[nH]c(=O)c2C1 (centres unmarked) [44-18]
< 0.05	< 0.003	O=C(C(O)c1cccc(-c2cccc(F)c2)c1)N1CCCc2nc(C3(c4cccc(Cl)c4)CC3)[nH]c(=O)c2C1 (centres unmarked) [17-5]
< 0.05	–	O=C(C(O)c1cccc(-c2ccc(F)c(F)c2)c1)N1CCc2nc(C3(c4ccccc4)CC3)[nH]c(=O)c2C1 (centres unmarked) [44-49]
< 0.05	< 0.01	O=C(C(O)c1cccc(OCc2ccccc2)c1)N1CCc2nc(C3(c4cccc(Cl)c4)CC3)[nH]c(=O)c2C1 (centres unmarked) [14-106]
< 0.05	–	O=C(Cc1cccc(Oc2ccccc2)c1)N1CCCc2nc(C3(c4ccccc4)CC3)[nH]c(=O)c2C1 [17-144]
< 0.05	< 0.003	C=C(C)c1cccc(C2(c3nc4c(c(=O)[nH]3)CN(C(=O)[C@H](O)c3cccc(Cl)c3)CCC4)CC2)c1 [40-4, (R)-6-(2-(3-chlorophenyl)-2-hydroxyacetyl)-2-(1-(3-(prop-1-en-2-yl)phenyl)cyclopropyl)-3,5,6,7,8,9-hexahydro-4H-pyrimido[5,4-c]azepin-4-one]
< 0.05	< 0.01	O=C([C@H](O)c1cccc(Cl)c1)N1CCc2nc(C3(c4cncc(C5CCCCC5)c4)CC3)[nH]c(=O)c2C1 [25-2]
< 0.05	< 0.003	O=C(C(O)c1cccc(C(F)(F)F)c1F)N1CCCc2nc(C3(c4cccc(Cl)c4)CC3)[nH]c(=O)c2C1 (centres unmarked) [17-4]
< 0.05	< 0.01	CC(C)c1cncc(C2(c3nc4c(c(=O)[nH]3)CN(C(=O)C(O)c3cccc(-c5cccc(C(C)(C)C)c5)c3)CCC4)CC2)c1 (centres unmarked) [55-1]
< 0.05	< 0.01	CC(C)N(C(=O)c1csc(C2(c3nc4c(c(=O)[nH]3)CN(C(=O)[C@H](O)c3cccc(C(F)(F)F)c3)CCC4)CC2)c1)C1CCCCC1 [59-15]
< 0.05	< 0.01	O=C([C@H](O)c1cccc(C(F)(F)F)c1)N1CCCc2nc(C3(c4cc(C5CCCCC5)cs4)CC3)[nH]c(=O)c2C1 [18-4]
< 0.05	< 0.01	O=C([C@H](O)c1cccc(-c2cc(Cl)cc(C(F)(F)F)c2)c1)N1CCCc2nc(C3(c4cccc(Cl)c4)CC3)[nH]c(=O)c2C1 [50-17]
< 0.05	–	O=C([C@H](O)c1cccc(Cl)c1)N1CCCc2nc(C3(c4ccnc(Oc5ccccc5)c4)CC3)[nH]c(=O)c2C1 [19-9]
< 0.05	–	O=C(C(O)c1cccc(-c2ccc(F)cc2F)c1)N1CCc2nc(C3(c4ccccc4)CC3)[nH]c(=O)c2C1 (centres unmarked) [44-52]
< 0.05	< 0.01	N#Cc1ccc(-c2cccc(C3(c4nc5c(c(=O)[nH]4)CN(C(=O)[C@H](O)c4cccc(C(F)(F)F)c4)CCC5)CC3)c2)cc1C#N [42-68]
